Data reported in patent US20230002359A1, “PESTICIDALLY ACTIVE FUSED BICYCLIC HETEROAROMATIC COMPOUNDS” (priority 2019, published 2023).

Key:
Type in all cases: in vivo
[1] = tested on: Myzus persicae (Green Peach Aphid); experiment: Example B5: Myzus persicae (green peach aphid) feeding/contact activity, sunflower leaf discs; conditions: foliar, 144 h, application rate of 200 ppm, 6 days after infestation
Experimental: Sunflower leaf discs were placed onto agar in a 24-well microtiter plate and sprayed with aqueous test solutions prepared from 10′000 ppm DMSO stock solutions. After drying, the leaf discs were infested with an aphid population of mixed ages. The samples were assessed for mortality 6 days after infestation.

[2] = tested on: Plutella xylostella (Diamondback Moth); experiment: Example B9: Plutella xylostella (diamondback moth), artificial diet, eggs, 96-well; conditions: 216 h, application rate of 500 ppm, 9 days after infestation, read-out: control in mortality
Experimental: 96-well microtiter plates containing artificial diet were treated with aqueous test solutions, prepared from 10′000 ppm DMSO stock solutions, by a liquid handling robot. After drying, eggs (˜30 per well) were infested onto a netted lid which was suspended above the diet. The eggs hatch and L1 larvae move down to the diet. The samples were assessed for mortality 9 days after infestation.

[3] = tested on: Spodoptera littoralis (Egyptian Cotton Leaf Worm); experiment: Example B7: Spodoptera littoralis (Egyptian cotton leaf worm), cotton leaf discs sprayed, L1 larvae; conditions: foliar, 72 h, application rate of 200 ppm, 3 days after infestation, L1 larvae, read-out: control in at least one of the three categories (mortality, anti-feedant effect, or growth inhibition)
How it was run: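 Cotton leaf discs on agar were sprayed with aqueous test solutions made from 10′000 ppm DMSO stocks, dried, then infested with five L1 larvae. Mortality, anti-feeding effect and growth inhibition were scored against untreated discs 3 days after infestation; control means any category exceeds untreated.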

[4] = tested on: Myzus persicae (Green Peach Aphid); experiment: Example B6: Myzus persicae (green peach aphid) intrinsic activity, sucrose solution; conditions: 120 h, test rate of 12 ppm, 5 days after infestation, intrinsic activity, read-out: mortality
How it was run: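 Mortality was read 5 days after infestation. Aphids on pea seedlings fed through a stretched Parafilm membrane on inverted 24-well plates containing sucrose solution mixed with test compound, which was diluted from 10′000 ppm DMSO stock.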

[5] = tested on: Diabrotica Balteata (Corn Root Worm); experiment: Example B1: Diabrotica balteata (corn root worm), maize sprouts sprayed, L2 larvae; conditions: 96 h, application rate of 200 ppm, 4 days after infestation, L2 larvae, read-out: control in at least one of the two categories (mortality or growth inhibition)
How it was run: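 Spray test: maize sprouts on agar, aqueous dilutions of 10′000 ppm DMSO stock; after drying, 6–10 L2 larvae/well. Read-out at 4 d post-infestation: mortality and growth inhibition vs untreated.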

[6] = tested on: Chilo suppressalis (Striped Rice Stemborer); experiment: Example B3: Chilo suppressalis (striped rice stemborer), artificial diet, L2 larvae; conditions: 144 h, application rate of 200 ppm, 6 days after infestation, L2 larvae, read-out: control in at least one of the three categories (mortality, anti-feedant effect, or growth inhibition)
How it was run: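 First, artificial diet was treated with aqueous solutions prepared from 10'000 ppm DMSO stocks; second, after drying, L2 larvae (6-8/well) were added; third, effects were assessed at 6 days against untreated controls, counting control when any of three categories was higher.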

[7] = tested on: Plutella xylostella (Diamond Back Moth); experiment: Example B4: Plutella xylostella (diamond back moth), artificial diet, eggs, 24-well; conditions: 192 h, application rate of 200 ppm, 8 days after infestation, eggs, read-out: control in at least one of the two categories (mortality or growth inhibition)
Experimental: 24-well microtiter plates with artificial diet were treated with aqueous test solutions prepared from 10′000 ppm DMSO stock solutions by pipetting. After drying, Plutella eggs were pipetted through a plastic stencil onto a gel blotting paper and the plate was closed with it. The samples were assessed for mortality and growth inhibition in comparison to untreated samples 8 days after infestation.

[8] = tested on: Spodoptera littoralis (Egyptian Cotton Leaf Worm); experiment: Example B8: Spodoptera littoralis (Egyptian cotton leaf worm), uptake by lettuce roots from agar, eggs; conditions: 144 h, test rate of 12.5 ppm, 6 days after infestation, compound absorbed by lettuce roots, read-out: control in at least one of the three categories (mortality, anti-feeding, or growth inhibition)
Text: Test compounds were applied by pipette from 10′000 ppm DMSO stock solutions into 24-well plates and mixed with agar. Lettuce seeds were placed onto the agar and the multi well plate was closed by another plate which contained also agar. After 7 days the compound was absorbed by the roots and the lettuce grew into the lid plate. The lettuce leaves were then cut off into the lid plate. Spodoptera eggs were pipetted through a plastic stencil onto a humid gel blotting paper and the lid plate was closed with it. The samples were assessed for mortality, anti-feedant effect and growth inhibition in comparison to untreated samples 6 days after infestation.
The following compounds gave an effect of at least 80% control in at least one of the three categories (mortality, anti-feeding, or growth inhibition) at a test rate of 12.5 ppm: P.58, P.93, P.94, P.95, P.130, P.254, P.256.

[9] = tested on: Euschistus heros (Neotropical Brown Stink Bug); experiment: Example B2: Euschistus heros (neotropical brown stink bug), soybean leaves sprayed, N2 nymphs; conditions: 120 h, application rate of 200 ppm, 5 days after infestation, N2 nymphs, read-out: control in at least one of the two categories (mortality or growth inhibition)
Experimental: Soybean leaves on agar in 24-well microtiter plates were sprayed with aqueous test solutions prepared from 10′000 ppm DMSO stock solutions. After drying the leaves were infested with N2 nymphs. The samples were assessed for mortality and growth inhibition in comparison to untreated samples 5 days after infestation.

CC(c1ncnn1-c1ccc(C#N)cn1)N(C)c1ncnc2c(C(F)(F)F)cc(Br)cc12 (centres unmarked) [P.52, 6-[5-[1-[[6-bromo-8-(trifluoromethyl)quinazolin-4-yl]-methyl-amino]ethyl]-1,2,4-triazol-1-yl]pyridine-3-carbonitrile]
≥ 80%: mortality at 200 ppm [1] | mortality at 500 ppm [2] | percent control (mortality, anti-feedant effect or growth inhibition) at 200 ppm [3] | mortality at 12 ppm [4] | percent control (mortality or growth inhibition) at 200 ppm [5] | percent control (mortality, anti-feedant effect or growth inhibition) at 200 ppm [6] | percent control (mortality or growth inhibition) at 200 ppm [7]

CC(c1ncnn1-c1ncccn1)N(C)c1ncnc2c(C(F)(F)F)cc(C(F)(F)F)cc12 (centres unmarked) [P.58, N-methyl-N-[1-(2-pyrimidin-2-yl-1,2,4-triazol-3-yl)ethyl]-6,8-bis(trifluoromethyl)quina-zolin-4-amine]
≥ 80%: mortality at 500 ppm [2] | percent control (mortality, anti-feeding or growth inhibition) at 12.5 ppm [8]

C[C@@H](c1ncnn1-c1ccc(C#N)cn1)N(C)c1ccnc2c(Br)cc(C(F)(F)F)cc12 [P.254, 6-[5-[(1S)-1-[[8-bromo-6-(trifluoromethyl)-4-quinolyl]-methyl-amino]ethyl]-1,2,4-triazol-1-yl]pyridine-3-carbonitrile]
≥ 80%: percent control (mortality, anti-feedant effect or growth inhibition) at 200 ppm [3] | percent control (mortality, anti-feeding or growth inhibition) at 12.5 ppm [8] | percent control (mortality or growth inhibition) at 200 ppm [5] | percent control (mortality, anti-feedant effect or growth inhibition) at 200 ppm [6] | percent control (mortality or growth inhibition) at 200 ppm [7]

C[C@H](Nc1ncnc2c(I)cc(C(F)(F)F)cc12)c1ncnn1-c1ncccn1 [P.95, 8-iodo-N-[(1S)-1-(2-pyrimidin-2-yl-1,2,4-triazol-3-yl)ethyl]-6-(trifluoromethyl)quinazolin-4-amine]
≥ 80%: mortality at 200 ppm [1] | mortality at 500 ppm [2] | percent control (mortality, anti-feedant effect or growth inhibition) at 200 ppm [3] | percent control (mortality, anti-feeding or growth inhibition) at 12.5 ppm [8] | mortality at 12 ppm [4] | percent control (mortality or growth inhibition) at 200 ppm [5] | percent control (mortality, anti-feedant effect or growth inhibition) at 200 ppm [6] | percent control (mortality or growth inhibition) at 200 ppm [7] | percent control (mortality or growth inhibition) at 200 ppm [9]

CC(Nc1ncnc2c(C(F)(F)F)cc(Cl)cc12)c1nccnc1-c1ncccn1 (centres unmarked) [P.130, 6-chloro-N-[1-(3-pyrimidin-2-ylpyrazin-2-yl)ethyl]-8-(trifluoromethyl)quinazolin-4-amine]
≥ 80%: mortality at 200 ppm [1] | percent control (mortality, anti-feedant effect or growth inhibition) at 200 ppm [3] | percent control (mortality, anti-feeding or growth inhibition) at 12.5 ppm [8] | mortality at 12 ppm [4] | percent control (mortality or growth inhibition) at 200 ppm [5] | percent control (mortality, anti-feedant effect or growth inhibition) at 200 ppm [6] | percent control (mortality or growth inhibition) at 200 ppm [7]

C[C@H](Nc1ccnc2c(Br)cc(C(F)(F)F)cc12)c1ncnn1-c1ccc(C#N)cn1 [P.256, 6-[5-[(1S)-1-[[8-bromo-6-(trifluoromethyl)-4-quinolyl]amino]ethyl]-1,2,4-triazol-1-yl]pyridine-3-carbonitrile]
≥ 80%: percent control (mortality, anti-feedant effect or growth inhibition) at 200 ppm [3] | percent control (mortality, anti-feeding or growth inhibition) at 12.5 ppm [8] | percent control (mortality or growth inhibition) at 200 ppm [5] | percent control (mortality, anti-feedant effect or growth inhibition) at 200 ppm [6] | percent control (mortality or growth inhibition) at 200 ppm [7]

C[C@H](Nc1ncnc2c(OC(F)F)cc(Cl)cc12)c1ncnn1-c1ncccn1 [P.93, 6-chloro-8-(difluoromethoxy)-N-[(1S)-1-(2-pyrimidin-2-yl-1,2,4-triazol-3-yl)ethyl]quinazolin-4-amine]
≥ 80%: mortality at 500 ppm [2] | percent control (mortality, anti-feedant effect or growth inhibition) at 200 ppm [3] | percent control (mortality, anti-feeding or growth inhibition) at 12.5 ppm [8] | mortality at 12 ppm [4] | percent control (mortality or growth inhibition) at 200 ppm [5] | percent control (mortality, anti-feedant effect or growth inhibition) at 200 ppm [6] | percent control (mortality or growth inhibition) at 200 ppm [7] | percent control (mortality or growth inhibition) at 200 ppm [9]

C[C@H](Nc1ncnc2c(Cl)cc(OC(F)F)cc12)c1ncnn1-c1ncccn1 [P.94, 8-chloro-6-(difluoromethoxy)-N-[(1S)-1-(2-pyrimidin-2-yl-1,2,4-triazol-3-yl)ethyl]quinazolin-4-amine]
≥ 80%: mortality at 200 ppm [1] | mortality at 500 ppm [2] | percent control (mortality, anti-feeding or growth inhibition) at 12.5 ppm [8] | mortality at 12 ppm [4] | percent control (mortality or growth inhibition) at 200 ppm [5] | percent control (mortality, anti-feedant effect or growth inhibition) at 200 ppm [6] | percent control (mortality or growth inhibition) at 200 ppm [7]
